According to BindingDB's records for patent US11084800 (Achillion Pharmaceuticals, 2021):

Biological target: Complement factor D (Homo sapiens, UniProt P00746)
Assay: Factor D Assay
Method: Human Factor D (purified from human serum, Complement Technology, Inc.) at 80 nM final concentration is incubated with test compound at various concentrations for 5 min at room temperature in 50 mM Tris, 1M NaCl, pH 7.5. A synthetic substrate Z-L-Lys-SBz and DTNB (Ellman's reagent) are added to final concentrations of 100 μM each. Absorbance at 405 nm (A405) is recorded at 30 second intervals for 30 min using a microplate spectrophotometer. IC50 values are calculated by nonlinear regression of complement Factor D reaction rates as a function of test compound concentration.

Chain of Complement factor D (P00746 whole entry): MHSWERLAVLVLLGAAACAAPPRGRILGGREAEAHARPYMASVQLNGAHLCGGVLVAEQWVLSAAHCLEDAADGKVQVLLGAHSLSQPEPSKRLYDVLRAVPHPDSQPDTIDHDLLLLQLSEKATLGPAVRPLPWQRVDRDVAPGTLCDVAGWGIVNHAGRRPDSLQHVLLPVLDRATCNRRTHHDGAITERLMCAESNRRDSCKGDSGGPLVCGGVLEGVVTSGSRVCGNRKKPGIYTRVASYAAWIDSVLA

How did the IC50 turn out when `CC(=O)c1nn(CC(=O)N2C[C@H]3C[C@H]3[C@H]2C(=O)N2C[C@H]3C[C@H]3C2C(=O)Nc2nc(Br)ccc2C)c2c(C)cc(-c3cnc(C)nc3)cc12` (stereo partly specified) [US11084800, Cpd No. 92] was run?
The IC50 was “in the range around 5.5 µM”.
